The values below come from US11572398B2, “GLP-1 derivatives and uses thereof” (Novo Nordisk A/S, priority 2014, dated 2023).

Where two headings read alike, the source gives them in different places.

In test [1] the target is T1, human GLP-1 receptor (Homo sapiens, UniProt P43220).
T1 construct: expressed in transfected cells; host or cells: BHK cells (parent line BHKTS13), clone FCW467-12A; membrane preparation
In words: GLP-1 receptor binding: competitive binding assay (125I-GLP-1, SPA) on isolated membranes at low and high HSA. Here is the method:
The purpose of this example is to test the receptor binding of the GLP-1 derivatives in vitro. The receptor binding is a measure of affinity of a derivative for the human GLP-1 receptor.
Each derivative is added in a series of concentrations to isolated membranes containing the human GLP-1 receptor and displacement of the labelled ligand is monitored. The receptor binding is reported as the concentration at which half of the labelled ligand is displaced from the receptor, the IC50 value.
Buffer 1 consisted of 20 mM Na-HEPES plus 10 mM EDTA and pH was adjusted to 7.4. Buffer 2 consisted of 20 mM Na-HEPES plus 0.1 mM EDTA and pH was adjusted to 7.4. Assay buffer consisted of 50 mM HEPES supplemented with 5 mM EGTA, 5 mM MgCl2, 0.005% Tween 20 and pH was adjusted to 7.4. An 8% albumin stock consisted of HSA dissolved at 8% (w/v) in assay buffer. An 0.02% albumin stock consisted of HSA dissolved at 0.02% (w/v) in assay buffer.
The cells express the human GLP-1 receptor.
The cells were grown at 5% CO2 in DMEM, 10% fetal calf serum, 1% Pen/Strep (Penicillin/Streptomycin) and 1.0 mg/ml of the selection marker G418. To make a membrane preparation the cells were grown to approximately 80% confluence. The cells were washed twice in phosphate-buffered saline and harvested. The cells were pelleted using a brief centrifugation and the cell pellet was kept on ice. […] The homogenate was centrifuged for 15 minutes. The pellet was re-suspended (homogenised) in 10 ml buffer 2 and centrifuged. This step was repeated once more. The resulting pellet was re-suspended in buffer 2 and the protein concentration was determined. The membranes were aliquoted and stored at minus 80° C.
1. […] Assay continued with step 3.
2. For the receptor binding assay in the presence of high HSA (2%) 50 μl of the 8% albumin stock was added to each well of an assay plate. Assay continued with step 3.
4. Cell membrane aliquots were thawed and diluted to their working concentration. Fifty μl were added to each well in the assay plate.
5. WGA SPA beads were suspended in assay buffer at 20 mg/ml. The suspension was diluted to 10 mg/ml in assay buffer just prior to addition to the assay plate. Fifty μl were added to each well in the assay plate.
6. […] A 25 μl aliquot was reserved for measuring total counts/well.
7. The assay plate was incubated for 2 h at 30° C.
8. The assay plate was centrifuged for 10 min.
9. The assay plate was read in a Packard TopCount NXT instrument.
The data from the TopCount instrument were transferred to GraphPad Prism software. Individual replicates were analysed using non-linear regression. IC50 values were calculated by the software and reported in nM. The reported values are averages of all of the measured values for each compound.

For test [2], the target named is T1, human GLP-1 receptor. As to the kind of experiment: In vitro potency: CRE luciferase reporter gene assay in BHK cells expressing the human GLP-1 receptor. Particulars: whole cell reporter gene assay, BHK cells, human GLP-1 receptor; average of at least two replicates; read-out: EC50. The test is classed as cell-based. The procedure:
The purpose of this example is to test the activity, or potency, of the GLP-1 derivatives in vitro. The in vitro potency is the measure of human GLP-1 receptor activation in a whole cell assay.
In vitro potency was determined by measuring the response of the human GLP-1 receptor in a reporter gene assay. The assay was performed in a stably transfected BHK cell line that expresses the human GLP-1 receptor and contains the DNA for the cAMP response element (CRE) coupled to a promoter and the gene for firefly luciferase (CRE luciferase). When the human GLP-1 receptor is activated it results in the production of cAMP, which in turn results in the luciferase protein being expressed. When assay incubation is completed the luciferase substrate (luciferin) is added and the enzyme converts luciferin to oxyluciferin to produce bioluminescence. The luminescence is measured as the readout for the assay.
The cells were cultured at 5% CO2 in cell culture medium. They were aliquoted and stored in liquid nitrogen. Before each assay an aliquot was taken up and washed twice in PBS before being suspended at the desired concentration in the assay specific buffer.
The assay buffer consisted of 2% ovalbumin and 0.2% Pluronic F-68 in assay medium.
1) Cell stocks were thawed in a 37° C. water bath.
2) Cells were washed three times in PBS.
3) Cells were counted and adjusted to 5×10^3 cells/50 μl (1×10^5 cells/ml) in assay medium. A 50 μl aliquot of cells was transferred to each well in the assay plate.
4) Stocks of the test compounds and reference compounds were diluted to a concentration of 0.2 μM in assay buffer. […] 8) A 100 μl aliquot of steadylite plus reagent was added to each well of the assay plate. 9) Each assay plate was covered with aluminum foil to protect it from light and shaken for 30 min at room temperature. 10) Each assay plate was read in a BioTek Synergy 2 Multi-Mode Reader. Calculations and Results
The data from the BioTek Synergy 2 Multi-Mode Reader were transferred to GraphPad Prism software. The software performs a non-linear regression (log(agonist) vs response (three parameters)).
A minimum of two replicates were measured for each sample. The reported EC50 values are averages of all of the measured values for each compound.
In general terms: Reporter assays use an easily measured gene product as a stand-in for the process of interest.

Setting [3] is: high HSA (2.0% final assay concentration), read-out: High HSA IC50.

T1 sequence (P43220 24-463): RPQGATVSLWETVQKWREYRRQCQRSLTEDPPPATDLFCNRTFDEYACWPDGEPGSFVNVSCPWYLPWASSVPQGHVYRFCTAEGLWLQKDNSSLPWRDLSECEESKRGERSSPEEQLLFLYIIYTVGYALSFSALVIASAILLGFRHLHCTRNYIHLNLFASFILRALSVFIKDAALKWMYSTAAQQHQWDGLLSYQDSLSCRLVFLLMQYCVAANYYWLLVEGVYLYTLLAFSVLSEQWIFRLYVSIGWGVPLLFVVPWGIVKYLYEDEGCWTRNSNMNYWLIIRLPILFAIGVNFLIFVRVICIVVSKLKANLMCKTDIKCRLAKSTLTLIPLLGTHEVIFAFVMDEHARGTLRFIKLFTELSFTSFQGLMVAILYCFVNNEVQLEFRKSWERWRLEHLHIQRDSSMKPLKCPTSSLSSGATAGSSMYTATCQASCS

A word on the IC50: it is the midpoint of a concentration-inhibition curve. By EC50 is commonly meant the concentration giving half of the maximal effect. In the case of `CC[C@H](C)[C@H](NC(=O)[C@H](Cc1ccccc1)NC(=O)[C@H](CCC(=O)O)NC(=O)[C@H](CCCNC(=N)N)NC(=O)[C@H](C)NC(=O)[C@H](C)NC(=O)[C@H](CCC(N)=O)NC(=O)[C@H](CCC(=O)O)NC(=O)[C@H](CCC(=O)O)NC(=O)[C@H](CC(C)C)NC(=O)[C@H](Cc1ccc(O)cc1)NC(=O)[C@H](CO)NC(=O)[C@H](CO)NC(=O)[C@@H](NC(=O)[C@H](CC(=O)O)NC(=O)[C@H](CO)NC(=O)[C@@H](NC(=O)[C@H](Cc1ccccc1)NC(=O)[C@@H](NC(=O)CNC(=O)[C@H](CCC(=O)O)NC(=O)C(C)(C)NC(=O)[C@@H](N)Cc1c[nH]cn1)[C@@H](C)O)[C@@H](C)O)C(C)C)C(=O)N[C@@H](C)C(=O)N[C@@H](Cc1c[nH]c2ccccc12)C(=O)N[C@@H](CC(C)C)C(=O)N[C@H](C(=O)N[C@@H](CCCNC(=N)N)C(=O)NCC(=O)N[C@@H](CCCNC(=N)N)C(=O)N[C@@H](CCCCNC(=O)CN(CCCNC(=O)CCOCCOCCOCCOCCOCCOCCOCCOCCOCCOCCOCCOCCNC(=O)[C@@H](N)CCCCNC(=O)[C@@H](N)CCCCNC(=O)CCCCCCCCCCCCCCCCCCC(=O)O)CCCNC(=O)CCOCCOCCOCCOCCOCCOCCOCCOCCOCCOCCOCCOCCNC(=O)[C@@H](N)CCCCNC(=O)[C@@H](N)CCCCNC(=O)CCCCCCCCCCCCCCCCCCC(=O)O)C(=O)O)C(C)C` [Example 8, N{Epsilon-37}-[2-[bis[3-[3-[2-[2-[2-[2-[2-[2-[2-[2-[2-[2-[2-[2-[[(2S)-2-amino-6-[[(2S)-2-amino-6-(19-carboxynonadecanoylamino)hexanoyl]amino]hexanoyl]amino]ethoxy]ethoxy]ethoxy]ethoxy]ethoxy]ethoxy]ethoxy]ethoxy]ethoxy]ethoxy]ethoxy]ethoxy]propanoylamino]propyl]amino]acetyl]-[Aib8,Glu22,Arg26,Arg34,Lys37]-GLP-1-(7-37)-peptide], the IC50 is 27 nM in test [1] (setting [3]) and 0.19 nM in test [1] (low HSA (max. 0.001% final assay concentration), read-out: Low HSA IC50). For the same compound, the half-maximal effective concentration (EC50) in test [2] is 0.01 nM.
Turning to `CC[C@H](C)[C@H](NC(=O)[C@H](Cc1ccccc1)NC(=O)[C@H](CCC(=O)O)NC(=O)[C@H](CCCNC(=N)N)NC(=O)[C@H](C)NC(=O)[C@H](C)NC(=O)[C@H](CCC(N)=O)NC(=O)[C@H](CCC(=O)O)NC(=O)[C@H](CCC(=O)O)NC(=O)[C@H](CC(C)C)NC(=O)[C@H](Cc1ccc(O)cc1)NC(=O)[C@H](CO)NC(=O)[C@H](CO)NC(=O)[C@@H](NC(=O)[C@H](CC(=O)O)NC(=O)[C@H](CO)NC(=O)[C@@H](NC(=O)[C@H](Cc1ccccc1)NC(=O)[C@@H](NC(=O)CNC(=O)[C@H](CCC(=O)O)NC(=O)C(C)(C)NC(=O)[C@@H](N)Cc1c[nH]cn1)[C@@H](C)O)[C@@H](C)O)C(C)C)C(=O)N[C@@H](C)C(=O)N[C@@H](Cc1c[nH]c2ccccc12)C(=O)N[C@@H](CC(C)C)C(=O)N[C@H](C(=O)N[C@@H](CCCNC(=N)N)C(=O)NCC(=O)N[C@@H](CCCNC(=N)N)C(=O)N[C@@H](CCCCNC(=O)CN(CCCNC(=O)COCCOCCNC(=O)COCCOCCNC(=O)COCCOCCNC(=O)COCCOCCNC(=O)COCCOCCNC(=O)CC[C@H](NC(=O)[C@H]1CC[C@H](CNC(=O)CCCNC(=O)CCCCCCCCCCCCCCCS(=O)(=O)O)CC1)C(=O)O)CCCNC(=O)COCCOCCNC(=O)COCCOCCNC(=O)COCCOCCNC(=O)COCCOCCNC(=O)COCCOCCNC(=O)CC[C@H](NC(=O)[C@H]1CC[C@H](CNC(=O)CCCNC(=O)CCCCCCCCCCCCCCCS(=O)(=O)O)CC1)C(=O)O)C(=O)O)C(C)C` [Example 20, N{Epsilon-37}-[2-[bis[3-[[2-[2-[2-[[2-[2-[2-[[2-[2-[2-[[2-[2-[2-[[2-[2-[2-[[(4S)-4-carboxy-4-[[4-[[4-(16-sulfohexadecanoylamino)butanoylamino]methyl]cyclohexanecarbonyl]amino]butanoyl]amino]ethoxy]ethoxy]acetyl]amino]ethoxy]ethoxy]acetyl]amino]ethoxy]ethoxy]acetyl]amino]ethoxy]ethoxy]acetyl]amino]ethoxy]ethoxy]acetyl]amino]propyl]amino]acetyl]-[Aib8,Glu22,Arg26,Arg34,Lys37]-GLP-1-(7-37)-peptide], the IC50 in test [1] (Low HSA IC50, low HSA (max. 0.001% final assay concentration)) was 0.14 nM; in test [1] (setting [3]), 3.7 nM. Besides, the concentration giving a half-maximal response (EC50) in test [2] was 0.0016 nM.
